Measured values: paper PMC8632988, “Inhibition of SYK and cSrc kinases can protect bone and cartilage in preclinical models of osteoarthritis and rheumatoid arthritis” (Scientific Reports, 2021)
Where “and” joins values, the source holds several entries; their conditions need not be identical. Equal entries are not always repeated.

System: DBA/1 mice, CIA model
Experiment: Collagen-induced arthritis model in mice
Format: in vivo, mouse
Design: Total AUC Sum (d1-11) / Total AUC Sum (d1-11), Mean: scale not given here
Conditions: MTX 1.5 mg/kg PO; for Summed Prophylactic (Non-Enrollment) Paw Score / Total AUC Sum (d1-11), Prophylactic (Non-Enrollment) Paw Score: QD
Description: Collagen-induced arthritis (CIA) model was performed at Bolder BioPATH, USA. Study design and animal usage was approved by Bolder BioPATH’s Institutional Animal Care and Use Committee. CIA was induced in 6–7 week old male DBA/1 mice with body weight of 15–26 g (Harlan, Inc) by intradermal injection of Freund’s Complete Adjuvant (Difco) containing bovine type II collagen (Bolder BioPATH) on day 0 and again on day 21 according to the standard protocol. […] After that mice were randomized into six groups: a control group of four, vehicle group and four treatment groups of ten mice each. […] Each paw was scored daily for inflammation. Therapeutic and prophylactic paws were considered. At study termination mice were euthanized by CO2 inhalation followed by cervical dislocation. Fore paws, hind paws, and knees were removed for microscopy.
Mice were weighed on arthritis days 1, 3, 5, 7, 9, and 11 (prior to necropsy). Daily clinical scores were given for each of the paws (right front, left front, right rear, left rear) on days 1–11 using the following criteria:
After 1–2 days in fixative and 4–5 days in 5% formic acid for decalcification, tissues were trimmed, processed for paraffin embedding, sectioned at 8 µm and stained with toluidine blue. Hind paws and knees were embedded and sectioned in the frontal plane. Two joints from each animal were processed for histopathology evaluation. The joints were then scored by two independent readers as indicated below. When scoring, severity of changes as well as number of individual joints affected were considered. When only 1–3 joints of the paws or ankles out of a possibility of numerous metacarpal/metatarsal/digit or tarsal/tibiotarsal joints were affected, an arbitrary assignment of a maximum score of 1, 2 or 3 for parameters below was given depending on severity of changes. If more than 3 joints were involved, the criteria below were applied to the most severely affected/majority of joints.

[1] = all joints, QD (Group 3), group mean
[2] = all joints, QD (Group 3), individual animals

CN(Cc1cnc2nc(N)nc(N)c2n1)c1ccc(C(=O)N[C@@H](CCC(=O)O)C(=O)O)cc1 [MTX, methotrexate, reference compound]
Summed Prophylactic (Non-Enrollment) Paw Score (Day 11, group mean): 7.40 | Summed Prophylactic (Non-Enrollment) Paw Score (Day 11, individual animals): 6 and 5 and 4 and 14 and 10 and 8 | Total AUC Sum (d1-11), Prophylactic (Non-Enrollment) Paw Score (group mean): 52.20 | Total AUC Sum (d1-11), Prophylactic (Non-Enrollment) Paw Score (individual animals): 41.0 and 33.5 and 35.0 and 16.0 and 80.0 and 101.0 and 88.0 and 58.0 and 34.5 | % inhibition, Bone Resorption score (all joints, QD (Group 3)): 8% | % inhibition, Cartilage Damage score (all joints, QD (Group 3)): 3% | % inhibition, Inflammation score (all joints, QD (Group 3)): 4% | % inhibition, Pannus score (all joints, QD (Group 3)): 8% | % inhibition, Periosteal Bone Formation score (all joints, QD (Group 3)): 3% | % inhibition, Periosteal Bone Width (all joints, QD (Group 3)): 6% | % inhibition, Summed Scores (all joints, QD (Group 3)): 5% | Histopathology Scores Bone Resorption, Mean [1]: 1.58 | Histopathology Scores Cartilage Damage, Mean [1]: 3.21 | Histopathology Scores Inflammation, Mean [1]: 3.55 | Histopathology Scores Pannus, Mean [1]: 1.58 | Histopathology Scores Periosteal Bone Formation, Mean [1]: 1.10 | Histopathology Scores Summed Scores, Mean [1]: 11.03 | Periosteal Bone Width (40*25x measure), Mean [1]: 92.67 μm | Histopathology Scores Bone Resorption [2]: 1.17 and 1.67 and 1.08 and 1.00 and 2.33 and 1.58 and 1.25 and 1.83 and 2.25 | Histopathology Scores Cartilage Damage [2]: 1.92 and 3.00 and 1.67 and 2.17 and 4.17 and 4.33 and 3.83 and 3.17 and 4.83 | Histopathology Scores Inflammation [2]: 2.33 and 3.08 and 2.50 and 2.25 and 4.67 and 4.83 and 4.00 and 3.33 and 3.83 | Histopathology Scores Pannus [2]: 1.17 and 1.67 and 1.08 and 1.00 and 2.33 and 1.58 and 1.25 and 1.83 and 2.25 | Histopathology Scores Periosteal Bone Formation [2]: 0.83 and 1.33 and 0.50 and 1.17 and 1.50 | Histopathology Scores Summed Scores [2]: 7.42 and 10.75 and 6.83 and 7.25 and 13.33 and 15.33 and 12.17 and 9.67 and 12.00 and 15.50 | Periosteal Bone Width (40*25x measure) [2]: 80.00 μm and 106.67 μm and 40.00 μm and 140.00 μm and 86.67 μm and 60.00 μm and 146.67 μm | % inhibition to Vehicle, Total AUC Sum (d1-11) (therapeutic/enrollment paw score, QD (Group 3)): 3% | Total AUC Sum (d1-11), Mean (therapeutic/enrollment paw score, QD (Group 3), group mean): 61.65 | Total AUC Sum (d1-11) (therapeutic/enrollment paw score, QD (Group 3), individual animals): 43 and 36 and 65 and 75 and 130 and 82 and 38 and 78 | % inhibition to Vehicle, paw score Day 1 (therapeutic/enrollment paws, Day 1, QD (Group 3)): 0% | Summed Therapeutic (Enrollment) Paw Score Day 1, Mean (therapeutic/enrollment paws, Day 1, QD (Group 3), group mean): 3.20 | Summed Therapeutic (Enrollment) Paw Score Day 1 (therapeutic/enrollment paws, Day 1, QD (Group 3), individual animals): 2 and 4 and 6 | % inhibition to Vehicle, paw score Day 2 (therapeutic/enrollment paws, Day 2, QD (Group 3)): 9% | Summed Therapeutic (Enrollment) Paw Score Day 2, Mean (therapeutic/enrollment paws, Day 2, QD (Group 3), group mean): 4.30 | Summed Therapeutic (Enrollment) Paw Score Day 2 (therapeutic/enrollment paws, Day 2, QD (Group 3), individual animals): 3 and 2 and 5 and 6 and 8 | % inhibition to Vehicle, paw score Day 3 (therapeutic/enrollment paws, Day 3, QD (Group 3)): 12% | Summed Therapeutic (Enrollment) Paw Score Day 3, Mean (therapeutic/enrollment paws, Day 3, QD (Group 3), group mean): 5.20 | Summed Therapeutic (Enrollment) Paw Score Day 3 (therapeutic/enrollment paws, Day 3, QD (Group 3), individual animals): 4 and 3 and 5 and 7 and 9 | % inhibition to Vehicle, paw score Day 4 (therapeutic/enrollment paws, Day 4, QD (Group 3)): −2% | Summed Therapeutic (Enrollment) Paw Score Day 4, Mean (therapeutic/enrollment paws, Day 4, QD (Group 3), group mean): 6.30 | Summed Therapeutic (Enrollment) Paw Score Day 4 (therapeutic/enrollment paws, Day 4, QD (Group 3), individual animals): 4 and 3 and 7 and 8 and 12 and 9 | % inhibition to Vehicle, paw score Day 5 (therapeutic/enrollment paws, Day 5, QD (Group 3)): −2% | Summed Therapeutic (Enrollment) Paw Score Day 5, Mean (therapeutic/enrollment paws, Day 5, QD (Group 3), group mean): 6.70 | Summed Therapeutic (Enrollment) Paw Score Day 5 (therapeutic/enrollment paws, Day 5, QD (Group 3), individual animals): 4 and 7 and 8 and 15 and 9 | % inhibition to Vehicle, paw score Day 6 (therapeutic/enrollment paws, Day 6, QD (Group 3)): −2% | Summed Therapeutic (Enrollment) Paw Score Day 6, Mean (therapeutic/enrollment paws, Day 6, QD (Group 3), group mean): 6.70 | Summed Therapeutic (Enrollment) Paw Score Day 6 (therapeutic/enrollment paws, Day 6, QD (Group 3), individual animals): 4 and 7 and 8 and 15 and 9 | % inhibition to Vehicle, paw score Day 7 (therapeutic/enrollment paws, Day 7, QD (Group 3)): 0% | Summed Therapeutic (Enrollment) Paw Score Day 7, Mean (therapeutic/enrollment paws, Day 7, QD (Group 3), group mean): 6.80 | Summed Therapeutic (Enrollment) Paw Score Day 7 (therapeutic/enrollment paws, Day 7, QD (Group 3), individual animals): 5 and 4 and 7 and 8 and 15 and 9 | % inhibition to Vehicle, paw score Day 8 (therapeutic/enrollment paws, Day 8, QD (Group 3)): 3% | Summed Therapeutic (Enrollment) Paw Score Day 8, Mean (therapeutic/enrollment paws, Day 8, QD (Group 3), group mean): 6.80 | Summed Therapeutic (Enrollment) Paw Score Day 8 (therapeutic/enrollment paws, Day 8, QD (Group 3), individual animals): 5 and 4 and 7 and 8 and 15 and 9 | % inhibition to Vehicle, paw score Day 9 (therapeutic/enrollment paws, Day 9, QD (Group 3)): 5% | Summed Therapeutic (Enrollment) Paw Score Day 9, Mean (therapeutic/enrollment paws, Day 9, QD (Group 3), group mean): 6.90 | Summed Therapeutic (Enrollment) Paw Score Day 9 (therapeutic/enrollment paws, Day 9, QD (Group 3), individual animals): 5 and 4 and 7 and 8 and 15 and 9 | % inhibition to Vehicle, paw score Day 10 (therapeutic/enrollment paws, Day 10, QD (Group 3)): 7% | Summed Therapeutic (Enrollment) Paw Score Day 10, Mean (therapeutic/enrollment paws, Day 10, QD (Group 3), group mean): 6.90 | Summed Therapeutic (Enrollment) Paw Score Day 10 (therapeutic/enrollment paws, Day 10, QD (Group 3), individual animals): 5 and 4 and 7 and 8 and 15 and 9 | % inhibition to Vehicle, paw score Day 11 (therapeutic/enrollment paws, Day 11, QD (Group 3)): 7% | Summed Therapeutic (Enrollment) Paw Score Day 11, Mean (therapeutic/enrollment paws, Day 11, QD (Group 3), group mean): 6.90 | Summed Therapeutic (Enrollment) Paw Score Day 11 (therapeutic/enrollment paws, Day 11, QD (Group 3), individual animals): 5 and 4 and 7 and 8 and 15 and 9
